Results published in patent publication US12678454B2, “Bicarbonate as a potentiator for antimicrobial agents” (priority 2017, dated 2026).
Where two headings read alike, the source gives them in different places.

Assays:
[1] = for pH of MHB media: prior to pH-adjusting to 7.4
Description: Test media were pH-adjusted upon addition of sodium bicarbonate for all studies reported herein.

E. coli = test: Microdilution checkerboard analyses; format: cell-based, Escherichia coli
Description: (§1) In the following experiments, bacterial cells were cultured in 96-well microtiter plates in cation-adjusted Mueller-Hinton Broth (MHB) for 18 h at 37° C. The main strains used in this study were E. coli (K-12 BW25113) (placed in stationary incubator) and S. aureus (Strain Newman) (incubated at 250 r.p.m). Knockout strains (ΔtolcC and ΔychM) were used from the Keio knockout collection (Baba, T. et al. Construction of Escherichia coli K-12 in-frame, single-gene knockout mutants: the Keio collection. Mol Syst Biol 2, 2006 0008, doi:10.1038/msb4100050 (2006)). For minimum concentration for inhibition (MIC) determination and checkerboard analyses, Clinical & Laboratory Standards Institute (CLSI) protocol was used. […] DiSC3 loading of S. aureus cells was performed as previously described (Farha, M. A., Verschoor, C. P., Bowdish, D. & Brown, E. D. Collapsing the proton motive force to identify synergistic combinations against Staphylococcus aureus. Chemistry & biology 20, 1168-1178, doi:10.1016/j.chembiol.2013.07.006 (2013)). CCCP concentration of 20 μM was used. pH adjustments were made by addition of HCl or NaOH. INT assay and ATP bioluminescence assays were performed as previously described (Farha, M. A., Verschoor, C. P., Bowdish, D. & Brown, E. D. Collapsing the proton motive force to identify synergistic combinations against Staphylococcus aureus. Chemistry & biology 20, 1168-1178, doi:10.1016/j.chembiol.2013.07.006 (2013)). For chemical-genomic studies, the Keio library was grown overnight in cation-adjusted MHB broth, in 384-well plates. From these, treatment plates (25 mM sodium bicarbonate, or a sterile water control) were inoculated and grown for 15 hours at 37° C., in a stationary incubator. Data was normalized according to Mangat et al (Mangat, C. S., Bharat, A., Gehrke, S. S. & Brown, E. D. Rank ordering plate data facilitates data visualization and normalization in high-throughput screening. J Biomol Screen 19, 1314-1320, doi:10.1177/1087057114534298 (2014)), with gene products and GO terms mined from EcoCyc. […]

[2] = system: methicillin-resistance Staphylococcus aureus (MRSA) USA-300; test: Superficial skin infection model, tape-stripped mice; format: in vivo; conditions: topical 0.5% aqueous solution with or without bicarbonate (50 mM)
Description: In this model, an infection is established by disrupting the skin barrier through partial removal of the epidermal layer by stripping with adhesive tape and with subsequent application of the pathogen. Tape-stripped mice infected with 4×10^6 CFU/mL A. baumannii (FIG. 4A) or 4×10^6 CFU/mL methicillin-resistance Staphylococcus aureus (MRSA) USA-300 (FIG. 4B). […] This treatment regime was also conducted for the Vehicle (1.9% Boric Acid, pH 7) as a control (n=4). Tissue samples were collected at 25 hr post-infection (FIG. 4A) and 28 hr post-infection (FIG. 4B). […] (FIG. 5).

E. coli (K-12 BW25113) = format: cell-based, Escherichia coli; set-up: MIC, E. coli, MHB− / MIC, E. coli, MHB+: unit not given here; conditions: for MIC, E. coli, MHB−: MHB without sodium bicarbonate
Description: (§2) In the following experiments, bacterial cells were cultured in 96-well microtiter plates in cation-adjusted Mueller-Hinton Broth (MHB) for 18 h at 37° C. The main strains used in this study were E. coli (K-12 BW25113) (placed in stationary incubator) and S. aureus (Strain Newman) (incubated at 250 r.p.m). Knockout strains (ΔtolcC and ΔychM) were used from the Keio knockout collection (Baba, T. et al. Construction of Escherichia coli K-12 in-frame, single-gene knockout mutants: the Keio collection. Mol Syst Biol 2, 2006 0008, doi:10.1038/msb4100050 (2006)). For minimum concentration for inhibition (MIC) determination and checkerboard analyses, Clinical & Laboratory Standards Institute (CLSI) protocol was used. […] DiSC3 loading of S. aureus cells was performed as previously described (Farha, M. A., Verschoor, C. P., Bowdish, D. & Brown, E. D. Collapsing the proton motive force to identify synergistic combinations against Staphylococcus aureus. Chemistry & biology 20, 1168-1178, doi:10.1016/j.chembiol.2013.07.006 (2013)). CCCP concentration of 20 μM was used. pH adjustments were made by addition of HCl or NaOH. INT assay and ATP bioluminescence assays were performed as previously described (Farha, M. A., Verschoor, C. P., Bowdish, D. & Brown, E. D. Collapsing the proton motive force to identify synergistic combinations against Staphylococcus aureus. Chemistry & biology 20, 1168-1178, doi:10.1016/j.chembiol.2013.07.006 (2013)). For chemical-genomic studies, the Keio library was grown overnight in cation-adjusted MHB broth, in 384-well plates. From these, treatment plates (25 mM sodium bicarbonate, or a sterile water control) were inoculated and grown for 15 hours at 37° C., in a stationary incubator. Data was normalized according to Mangat et al (Mangat, C. S., Bharat, A., Gehrke, S. S. & Brown, E. D. Rank ordering plate data facilitates data visualization and normalization in high-throughput screening. J Biomol Screen 19, 1314-1320, doi:10.1177/1087057114534298 (2014)), with gene products and GO terms mined from EcoCyc. The GFP promoter library (Keseler, I. M. et al. EcoCyc: fusing model organism databases with systems biology. Nucleic Acids Res 41, D605-612, doi:10.1093/nar/gks1027 (2013)) was grown for 18 hours at ambient temperature with the same inoculation strategy as with the Keio collection. The analysis pipeline of Zaslaver et al (Zaslaver, A. et al. A comprehensive library of fluorescent transcriptional reporters for Escherichia coli. Nat Methods 3, 623-628, doi:10.1038/nmeth895 (2006)) was used to generate maps of promoter activity, from which lists of promoters with increased or decreased activity were compiled.

A. baumannii = test: Murine model of systemic A. baumannii infection; format: in vivo; conditions: mice
Description: Mice were treated two-hours post-infection to allow complete organ occupancy by the injected cells.

[3] = system: S. aureus (Strain Newman); test: MIC determination (CLSI protocol) in MHB; format: cell-based, Staphylococcus aureus; conditions: for MIC, S. aureus, MHB−: MHB without sodium bicarbonate
Description: as §2

Enterococcus faecium = system: Enterococcus faecium
Description: In the following experiments, bacterial cells were cultured in 96-well microtiter plates in cation-adjusted Mueller-Hinton Broth (MHB) for 18 h at 37° C. The main strains used in this study were E. coli (K-12 BW25113) (placed in stationary incubator) and S. aureus (Strain Newman) (incubated at 250 r.p.m). Knockout strains (ΔtolcC and ΔychM) were used from the Keio knockout collection (Baba, T. et al. Construction of Escherichia coli K-12 in-frame, single-gene knockout mutants: the Keio collection. Mol Syst Biol 2, 2006 0008, doi:10.1038/msb4100050 (2006)). For minimum concentration for inhibition (MIC) determination and checkerboard analyses, Clinical & Laboratory Standards Institute (CLSI) protocol was used. […] DiSC3 loading of S. aureus cells was performed as previously described (Farha, M. A., Verschoor, C. P., Bowdish, D. & Brown, E. D. Collapsing the proton motive force to identify synergistic combinations against Staphylococcus aureus. Chemistry & biology 20, 1168-1178, doi:10.1016/j.chembiol.2013.07.006 (2013)). CCCP concentration of 20 μM was used. pH adjustments were made by addition of HCl or NaOH. […]

[4] = system: Klebsiella pneumonia (ATCC 43816); conditions: mice
Description: Mice were infected with Klebsiella pneumonia (ATCC 43816; inoculum=2.5×10^6 CFU/mL). Following infection, the infected mice were treated with 4 mL nebulized doses of 225 mM sodium bicarbonate using a chamber nebulizer delivery system (Kent Scientific) at 2, 12 and 24 hours post-infection. The mice were sacrificed after 36 hours, and bacterial counts enumerated.

Pseudomonas aeruginosa = test: MIC determination (CLSI protocol); format: cell-based
Description: as §1

Acinetobacter baumannii = test: MIC determination (CLSI protocol); format: cell-based
Description: as §1

Klebsiella pneumoniae = test: MIC determination (CLSI protocol); format: cell-based
Description: as §1

Compound | Fold, S. aureus [3] | Fold, E. coli (E. coli (K-12 BW25113)) | MIC, E. coli, MHB+ (E. coli (K-12 BW25113)) | MIC, S. aureus, MHB− [3] | other results
O=P([O-])([O-])[O-].[Na+].[Na+].[Na+] [trisodium phosphate] | – | – | – | – | increase of the pH of the media ([1]; trisodium phosphate added): 3 units; effect on activity of dirithromycin (checkerboard) (E. coli; pH not adjusted (pH ~10)): potentiated the activity of dirithromycin; effect on activity of dirithromycin (checkerboard) (E. coli; pH of the medium adjusted to 7.2): loss of synergy
N=C(N)c1ccc(OCCCCCOc2ccc(C(=N)N)cc2)cc1 [pentamidine] | – | – | – | – | potentiation of antibacterial activity in the presence of bicarbonate, average (Gram-positive organisms): 50 fold; effect of addition of bicarbonate on efficacy of pentamidine in clearing MRSA infection [2]: increased the antibacterial efficacy; MIC of pentamidine, tissue culture media formulated to mimic the natural environment (E. coli (K-12 BW25113)): 1.5 µg/mL; A. baumannii organ load (spleen), combination (A. baumannii; combination of pentamidine 10 mg/kg and novobiocin IP): total clearance; decrease of A. baumannii organ load (spleen) (A. baumannii; pentamidine alone IP): seven; potentiation of antibacterial activity in the presence of bicarbonate, average (Gram-negative organisms): 40 fold
Neomycin | 4 fold | 4 fold | 0.25 | – | MIC, E. coli, MHB− (E. coli (K-12 BW25113)): 1
Gentamicin | 2 fold | 8 fold | 0.25 | – | effect of CCCP pre-treatment on potentiation by sodium bicarbonate (E. coli (K-12 BW25113)): abolishes the potentiation; MIC, E. coli, MHB− (E. coli (K-12 BW25113)): 2
O=C([O-])O.[Na+] [Sodium bicarbonate] | – | – | – | – | MIC of sodium bicarbonate ([3]; Staphylococcus aureus): 50 to 100 mM; MIC of sodium bicarbonate (Enterococcus faecium): 50 to 100 mM; MIC of sodium bicarbonate (E. coli (K-12 BW25113); Escherichia coli): 100 mM; tolerability of nebulized bicarbonate ([4]; 225 mM nebulized): well tolerated; bacterial counts ([4]; 4 mL nebulized 225 mM sodium bicarbonate at 2, 12, 24 h, counts after 36 hours, inoculum 2.5×10^6 CFU/mL): 4×10^4-4×10^5 CFU/mL; pH of MHB media ([1]; 3.12 mM sodium bicarbonate): 7.42; pH of MHB media ([1]; 25 mM sodium bicarbonate): 7.53; pH of MHB media ([1]; 50 mM sodium bicarbonate): 7.61; pH of MHB media ([1]; 100 mM sodium bicarbonate): 7.71; effect on activity of pentamidine (checkerboard) (E. coli; E. coli, dose-dependent): greatly potentiated the activity of pentamidine; MIC of sodium bicarbonate (Pseudomonas aeruginosa): >100 mM; MIC of sodium bicarbonate (Acinetobacter baumannii): 50 mM; MIC of sodium bicarbonate (Klebsiella pneumoniae): 100 mM
NC[C@H]1O[C@H](O[C@H]2[C@H](O)[C@@H](O[C@H]3O[C@H](CO)[C@@H](O)[C@H](N)[C@H]3O)[C@H](N)C[C@@H]2N)[C@H](O)[C@@H](O)[C@@H]1O [Kanamycin] | 2 fold | 4 fold | 1 | 8 µg/mL | –
CO/N=C(\C(=O)N[C@@H]1C(=O)N2C(C(=O)O)=C(CSc3nc(=O)c(=O)[nH]n3C)CS[C@H]12)c1csc(N)n1 [Ceftriaxone] | −4 fold | 1 fold | 0.625 | 4 µg/mL | –
CCN1CCN(C(=O)N[C@@H](C(=O)N[C@@H]2C(=O)N3C(C(=O)O)=C(CSc4nnnn4C)CS[C@H]23)c2ccc(O)cc2)C(=O)C1=O [Cefoperazone] | −16 fold | 1 fold | 0.125 | 0.25 µg/mL | –
N[C@@H]1CCCCN(c2c(F)cc3c(=O)c(C(=O)O)cn(C4CC4)c3c2Cl)C1 [Besifloxacin] | −2 fold | 8 fold | 0.0313 | 0.125 µg/mL | –
O=CN(O)CCCP(=O)(O)O [Fosmidomycin] | 1 fold | −2 fold | 32 | > 64 µg/mL | –
Cc1onc(-c2ccccc2)c1C(=O)N[C@@H]1C(=O)N2[C@@H]1SC(C)(C)[C@@H]2C(=O)O [Oxacillin] | −16 fold | −2 fold | >256 | 0.0625 µg/mL | –
CCN1CCN(C(=O)N[C@@H](C(=O)N[C@@H]2C(=O)N3[C@@H]2SC(C)(C)[C@@H]3C(=O)O)c2ccccc2)C(=O)C1=O [Piperacillin] | −4 fold | 2 fold | 1 | 0.25 µg/mL | –
COc1c(N2C[C@@H]3CCCN[C@@H]3C2)c(F)cc2c(=O)c(C(=O)O)cn(C3CC3)c12 [Moxifloxacin] | – | – | 0.0156 | 0.125 µg/mL | –
Polymyxin B | 8 fold | −2 fold | 0.5 | – | MIC, E. coli, MHB− (E. coli (K-12 BW25113)): 0.25
